The structures appear in SMILES notation.

Type in all cases: cell-based, Zymomonas mobilis
Test [1] concerns ZW658 strain. The experiment in a line: Tube fermentation of ZW658 on glucose and xylose with various sugar alcohols (Example 14). Here is the method: (§1) Approximately 1 ml of well mixed sample was obtained from flask or fermentor. First the sample absorbance was measured directly with a spectrophotometer (Amersham Biosciences Ultrospec 3300pro, GE Healthcare, Piscataway, N.J., USA). If the reading was lower than 0.6 unit, no dilution was needed. If the reading was higher than 0.6 unit, the sample was diluted with culture medium until the actual reading was in the range of 0.1 to 0.6 unit. The original OD was calculated from the dilution ratio and the actual reading.
(§2) The analysis of sugars, acetate, ethanol, and other by-products was done with an Agilent 1100 series HPLC and Agilent ChemStation software for LC 3D. The column was BioRad Aminex HPX-87H(HPLC Organic Analysis Column 125-0140) with BioRad Micro-Guard Cartridge Cation-H (125-0129). The operating conditions were:
In six sterilized 50 ml screw-cap centrifuge tubes (Cat. No. 21008-178, VWR International, USA), 200 μl of ZW658 strain glycerol stock at OD600 of approximately 10 was inoculated into each flask with 25 ml of aqueous solution containing 92 g/L glucose, 82 g/L xylose, 10 g/L yeast extract (YE), 2 g/L KH2PO4, 1 g/L MgSO4.7H2O, and 10 mM of D-sorbitol, L-sorbitol, D-threitol, myo-inositol, or xylitol. The control had no addition of sugar alcohol. Initial pH was adjusted to 5.5 with 4 N H3PO4 solution. Fermentation was conducted at 33° C. and pH was not controlled. Samples were taken periodically between 0 and 48 hr. Samples were filtered through 0.22 micron filters, and the filtrates were analyzed by HPLC as described in General Methods for glucose, xylose, xylitol, and ethanol. Samples were diluted with medium (as described in General Methods) and the OD600 was measured to monitor cell growth. Results of growth and glucose utilization are given in FIGS. 22A and 22B, respectively. Results of xylose utilization and ethanol production are given in FIGS. 23A and 23B, respectively. Cultures with D-sorbitol or L-sorbitol grew faster and better than the control. After 48 hours, the OD600 were 6.2 and 5.2, respectively, for cultures supplemented with D-sorbitol or L-sorbitol; while the OD600 were less than 1 for other cultures. […] The presence of D-sorbitol or L-sorbitol allowed more xylose utilization, without production of xylitol.

In test [2] the test system is ZW658 strain. The experiment in a line: Tube fermentation of ZW658 on glucose and xylose with various sugar alcohols (Example 13). The conditions noted are these: for ethanol production / xylose utilization: sugar alcohol in the medium vs control. Here is the method: as §1, §2
In eight sterilized 50 ml screw-cap centrifuge tubes (Cat. No. 21008-178, VWR International, USA), 200 μl of ZW658 strain glycerol stock at OD600 of approximately 10 was inoculated into each flask with 25 ml of aqueous solution containing 92 g/L glucose, 82 g/L xylose, 10 g/L yeast extract (YE), 2 g/L KH2PO4, 1 g/L MgSO4.7H2O, and either 10 mM of sorbitol, arabitol, adonitol (also called ribitol), or galactitol; or 50 mM of arabitol, adonitol, or galactitol. The control had no sugar alcohol added. Initial pH was adjusted to 5.5 with 4 N H3PO4 solution. Fermentation was conducted at 33° C. and pH was not controlled. Samples were taken periodically between 0 and 40 hr. Samples were filtered through 0.22 micron filters, and the filtrates were analyzed by HPLC as described in General Methods for glucose, xylose, xylitol, and ethanol. Samples were diluted with medium (as described in General Methods) and the OD600 was measured to monitor cell growth. Results of growth and glucose utilization are given in FIGS. 20A and 20B, respectively. Results of xylose utilization and ethanol production are given in FIGS. 21A and 21B, respectively. Cultures with sorbitol or galactitol grew much faster and better than the control. Cultures with adonitol also grew better. After 40 hours, the OD600 were 7 to 8, for cultures supplemented with sorbitol or galactitol; the OD600 were about 5, for cultures supplemented with adonitol; while the OD600 were less than 1 for other cultures. […] The presence of sorbitol, galactitol, or adonitol allowed more xylose utilization, without production of xylitol.

Test [3] concerns ZW658 strain. Kind of test: Flask fermentation of ZW658 on glucose and xylose with acetate and various polyols. Particulars: 10 mM polyol, 3 g/L acetate; for OD600: after 32 hours, total sugar about 160 g/L. As for the experimental part: as §1, §2
(§3) Glycerol stock of seed frozen at −80° C. was thawed, then inoculated into sterile culture tubes with mixture of 60 g/L glucose, 20 g/L xylose, 10 g/L yeast extract (YE), 10 g/L KH2PO4, 2 g/L (NH4)2SO4, and 1 g/L MgSO4. Initial pH was adjusted to 5.5 with 4 N KOH. This revival culture was grown statically overnight at 37° C. It was transferred into shake flasks with 75 g/L glucose, 25 g/L xylose, 10 g/L yeast extract (YE), 10 g/L KH2PO4, 2 g/L (NH4)2SO4, and 1 g/L MgSO4. Initial pH was adjusted to 5.5 with 4 N KOH. Growth was monitored by measuring OD600. When the OD reached approximately 5, a certain volume of the seed was withdrawn into a sterile syringe for inoculation.
In five sterilized 125 ml Erlenmeyer culture flasks (Cat. No. 30180-036, VWR International, USA), 10 ml of ZW658 strain seed culture at OD600 of approximately 5 was inoculated into each flask with 100 ml of aqueous solution containing 100 g/L glucose, 80 g/L xylose, 3 g/L acetate, 10 g/L yeast extract (YE), 2 g/L KH2PO4, 1 g/L MgSO4.7H2O, and 4 g/L KHCO3, and 10 mM of the following polyols: erythritol, sorbitol, mannitol, maltitol, or lactitol; or 5 mM sorbitol plus 5 mM maltitol, or 5 mM sorbitol plus 5 mM lactitol. After inoculation, the total sugar concentration was about 160 g/L due to dilution by the seed culture. Initial pH was adjusted to 5.5 with 4 N H3PO4 solution. Mixing speed was set at 150 rpm. Fermentation was conducted at 33° C. and pH was not controlled. Samples were taken periodically. Samples were filtered through 0.22 micron filters, and the filtrates were analyzed by HPLC as described in General Methods for compounds including glucose, xylose, ethanol, and acetate. Samples were diluted with medium (as described in General Methods) and the OD600 was measured to monitor cell growth.

For test [4], the system named is ZW658 strain. Kind of test: Flask fermentation of ZW658 on glucose and xylose with various polyols. Particulars: 10 mM polyol; for ethanol production / xylose utilization: mixed sugars; for OD600: after 32 hours, total sugar about 160 g/L, 33° C. Here is the method: as §1, §2, §3
In five sterilized 125 ml Erlenmeyer culture flasks (Cat. No. 30180-036, VWR International, USA), 10 ml of ZW658 strain seed culture at OD600 of approximately 5 was inoculated into each flask with 100 ml of aqueous solution containing 100 g/L glucose, 80 g/L xylose, 10 g/L yeast extract (YE), 2 g/L KH2PO4, 1 g/L MgSO4.7H2O, and 4 g/L KHCO3, and 10 mM of one of the following polyols: erythritol, sorbitol, mannitol, maltitol, or lactitol. After inoculation, the total sugar concentration was about 160 g/L due to dilution by the seed culture. Initial pH was adjusted to 5.5 with 4 N H3PO4 solution. Mixing speed was set at 150 rpm. Fermentation was conducted at 33° C. and pH was not controlled. Samples were taken periodically. Samples were filtered through 0.22 micron filters, and the filtrates were analyzed by HPLC as described in General Methods for compounds including glucose, xylose, ethanol, xylitol, and acetic acid. Samples were diluted with medium (as described in General Methods) and the OD600 was measured to monitor cell growth. […] Cultures with sorbitol or mannitol grew faster and better. After 32 hours, the OD600 were 13.94 and 13.92, respectively, for cultures supplemented with sorbitol or mannitol; meanwhile, the OD600 were 9.48, 9.02, and 9.24, respectively, for cultures supplemented with erythritol, maltitol, or lactitol. […] The presence of sorbitol or mannitol allowed more xylose utilization, without production of xylitol.

In test [5] the test system is ZW658 strain. Kind of test: 1-liter fermentor, ZW658 on high concentration glucose and xylose with sorbitol or glutamate. Here is the method: as §1, §2, §3
In a sterilized 1-liter fermentor (BIOSTAT® B-DCU system, Sartorius BBI System Inc., Bethlehem, Pa., USA), 50 ml of ZW658 strain seed culture at Optical Density of approximately 5 (measured at 600 nm) was inoculated into 450 ml of aqueous solution containing sugars and medium. The final mixed broth contained 100 g/L glucose, 85.1 g/L xylose, 10 g/L yeast extract (YE), 2 g/L KH2PO4, and 10 mM sorbitol. pH was adjusted to 5.5 with 4 N KOH solution. Mixing speed was set at 150 rpm. Fermentation was conducted at 33° C. and pH 5.5. Samples were taken periodically. Samples were filtered through 0.22 micron filters, and the filtrates were analyzed by HPLC as described in General Methods for compounds including glucose, xylose, ethanol, and acetate. Samples were also diluted with medium (as described in General Methods) and the OD600 was measured to monitor cell growth. […] The by-product xylitol concentration was 0.67 g/L at 29 hr, and increased to 0.95 g/L at 64 hr.
In a sterilized 1-liter fermentor (BIOSTAT® B-DCU system, Sartorius BBI System Inc., Bethlehem, Pa., USA), 50 ml of ZW658 strain seed culture at OD600 of approximately 5 was inoculated into 450 ml of aqueous solution containing sugars and medium. The final mixed broth contained 98.0 g/L glucose, 81.2 g/L xylose, 10 g/L yeast extract (YE), 2 g/L KH2PO4, and 10 mM potassium glutamate. pH was adjusted to 5.5 with 4 N KOH solution. Mixing speed was set at 150 rpm. Fermentation was conducted at 33° C. and pH 5.5. Samples were taken periodically. Samples were filtered through 0.22 micron filters, and the filtrates were analyzed by HPLC as described in General Methods for compounds including glucose, xylose, xylitol, ethanol, and acetic acid. Samples were also diluted with medium (as described in General Methods) and the OD600 was measured to monitor cell growth. […] However, xylose was not well-utilized, cell growth and ethanol production were reduced as compared to that in the presence of sorbitol (Example 4), and xylitol production increased.

The mark [6] stands for this setting: after 63.75 hours, 10 mM potassium glutamate.
Setting [7] is: in the presence of glutamate, mixed sugars.

Consider `OC[C@@H](O)[C@@H](O)[C@H](O)[C@@H](O)CO` [D-sorbitol], for which, in the test on ZW658 strain [1] (10 mM sugar alcohol vs control), the ethanol production result is “ethanol production was also better” and the xylose utilization result is “More xylose was utilized”. The OD600 in the test on ZW658 strain [1] (after 48 hours, 10 mM sugar alcohol, 92 g/L glucose, 82 g/L xylose) was 6.2.

Turning to `OC[C@@H](O)[C@@H](O)[C@@H](O)CO` [adonitol], the OD600 result in the test with ZW658 strain [2] (after 40 hours, 10 mM sorbitol, 10 mM or 50 mM other sugar alcohols, 92 g/L glucose, 82 g/L xylose) was “about 5”. Further, in the test with ZW658 strain [2], the ethanol production result is reported as “ethanol production was also better” and the xylose utilization entry is listed as “More xylose was utilized”.

`OC[C@@H](O)[C@@H](O)CO` [erythritol] gave an OD600 with ZW658 strain [3] of 5.20. Moreover, in the test on ZW658 strain [4], the ethanol production result is “do not increase ethanol production”, the xylose utilization result is reported as “nor do they increase xylose utilization” and the OD600 came out at 9.48.

With `OC[C@@H](O)[C@H](O)[C@H](O)[C@@H](O)CO` [galactitol], in the test with ZW658 strain [2], the ethanol production entry is given as “ethanol production was also better” and the xylose utilization entry is given as “More xylose was utilized”.

With `N[C@@H](CCC(=O)[O-])C(=O)[O-].[K+].[K+]` [glutamate, potassium glutamate, reference compound], in the test on ZW658 strain [5] (10 mM potassium glutamate), the “effect on lag period” value is on record as “reduced the lag period” and the “time at which glucose concentration reached 0” value came out at 24 h. For the same compound, in the test on ZW658 strain [5] (setting [6]), the “OD600 cells grew to” value is recorded as 6.9, the by-product xylitol concentration is 4.38 g/L and the ethanol concentration was found to be 72.3 g/L. The xylose concentration with ZW658 strain [5] (after 63.75 hours, 98.0 g/L glucose, 81.2 g/L xylose, 10 mM potassium glutamate) stood at 21.2 g/L. Moreover, the glucose concentration in the test on ZW658 strain [5] (after 63.75 hours, 98.0 g/L glucose, 81.2 g/L xylose, 10 mM potassium glutamate, 33° C., pH 5.5) came out at 0 g/L. In the test on ZW658 strain [5] (setting [7]), the “effect on ethanol production” value is “ethanol production is not improved”, the “effect on xylitol production” value is given as “xylitol production is not reduced” and the “effect on xylose utilization” value is “xylose utilization is not enhanced”.

For `OC[C@@H](O)[C@@H](O[C@@H]1O[C@H](CO)[C@H](O)[C@H](O)[C@H]1O)[C@H](O)[C@@H](O)CO` [lactitol], the OD600 with ZW658 strain [3] is 5.30. In addition, in the test on ZW658 strain [4], the ethanol production result was “do not increase ethanol production”, the xylose utilization entry is “nor do they increase xylose utilization” and the OD600 turned out to be 9.24.

In the test with ZW658 strain [3], `OC[C@@H](O)[C@@H](O[C@H]1O[C@H](CO)[C@@H](O)[C@H](O)[C@H]1O)[C@H](O)[C@@H](O)CO` [maltitol] displayed an OD600 of 5.20. Also, in the test with ZW658 strain [4], the ethanol production entry is recorded as “do not increase ethanol production”, the xylose utilization entry is given as “nor do they increase xylose utilization” and the OD600 is given as 9.02.

Turning to `OC[C@@H](O)[C@@H](O)[C@H](O)[C@H](O)CO` [mannitol], in the test on ZW658 strain [3], the ethanol production result is “ethanol production was also better”, the xylose utilization result was “More xylose was utilized” and the OD600 was 7.40. In the test with ZW658 strain [4], the ethanol production entry is recorded as “ethanol production was also better”, the xylose utilization entry was “More xylose was utilized” and the OD600 worked out at 13.92.

The values are drawn from patent publication US7629156B2, “Ethanol production in fermentation of mixed sugars containing xylose” (E.I. du Pont de Nemours and Company, priority 2006, dated 2009).
